Assay results as given in US5753661A, “Fused benzo compounds containing a nitrogen heterocycle for the treatment of central nervous system disorders” (priority 1992, dated 1998).
pIC50: −log10 of the molar value. Where two headings read alike, the source gives them in different places.

Key:
[1] = molecular target: T1, 5-HT1A receptor (Rattus norvegicus, UniProt P19327); test: Inhibition of 3H-8-OH-DPAT binding to serotonin 5-HT1A receptors in rat brain in vitro; set-up: 5-HT1A receptors in membranes from rat brain minus cerebellum; from tissue; host or cells: rat brain minus cerebellum, membranes
T1 sequence (P19327 1-422): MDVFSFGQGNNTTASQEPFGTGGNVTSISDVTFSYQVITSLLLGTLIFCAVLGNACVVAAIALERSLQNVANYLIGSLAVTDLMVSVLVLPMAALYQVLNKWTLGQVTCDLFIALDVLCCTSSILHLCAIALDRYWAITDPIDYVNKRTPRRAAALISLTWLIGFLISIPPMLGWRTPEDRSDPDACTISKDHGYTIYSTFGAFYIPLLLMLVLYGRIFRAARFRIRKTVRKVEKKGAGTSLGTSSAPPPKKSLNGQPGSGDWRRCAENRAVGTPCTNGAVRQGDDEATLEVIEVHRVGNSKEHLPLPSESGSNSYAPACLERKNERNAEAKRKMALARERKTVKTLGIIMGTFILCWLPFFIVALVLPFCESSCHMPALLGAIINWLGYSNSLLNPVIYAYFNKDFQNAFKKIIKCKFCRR
Method: Inhibition of ^3 H-8-OH-DPAT Binding to Serotonin 5-HT1A Receptors in Rat Brain in vitro.
By this method the inhibition by drugs of the binding of the 5-HT1A agonist 3H-8-OH-DPAT (1 nM) to 5-HT1A receptors in membranes from rat brain minus cerebellum is determined in vitro . Accordingly, this is a test for affinity for the 5-HT1A receptor. The assay was performed as described by Hyttel et al., Drug Dev. Res. 1988, 15, 389-404.

[2] = molecular target: T1, 5-HT1A receptor; test: Generalization to the discriminative stimulus properties induced by 8-OH-DPAT in rats (8-OH-DPAT cue, agonism); assay type: in vivo, rat (male Wistar); set-up: from tissue; host or cells: living male Wistar rat (in vivo, endogenous receptor); conditions: for ED50: rat, sc, usually 30 or 45 min before test
Text: Generalization to the Discriminative Stimulus Properties Induced by 8-OH-DPAT in Rats
This test is used to determine the 5-HT1A receptor agonistic effect of a test compound in vivo. A related method is described by Tricklebank, M. D., supra; Amt, J. Pharmacology & Toxicology, 1989, 64, 165.
The per cent drug responce obtained for each dose of test compound is used to calculate ED50 values by log-probit analysis.

[3] = molecular target: T1, 5-HT1A receptor; test: Inhibition of 5-MeO-DMT-induced 5-HT syndrome in rats; assay type: in vivo, rat (male Wistar); set-up: Male Wistar rats (Mol:Wist) weighing 170-240 g are used; from tissue; host or cells: living male Wistar rat (Mol:Wist) (in vivo, endogenous receptor); conditions: sc, 5-MeO-DMT 5 mg/kg s.c., inhibition of piano playing
Text: Inhibition of 5-MeO-DMT-Induced 5-HT Syndrome in Rats
The so-called 5-HT syndrome is a characteristic pattern of behaviours which are induced by 5-HT agonists with effects on 5-HT, possibly 5-HT1A receptors (Smith, L. M. and Peroutka, S. J., Pharmacol. Biochem. & Behaviour, 1986, 24, 1513; Tricklebank, M. et al, Eur. J. Pharmacol. 1985, 117, 15). This test is a test for determining the antagonist effects of a test compound on 5-HT1A receptors in vivo by measuring the ability to inhibit 5-MeO-DMT induced 5-HT syndrome.
Male Wistar rats (Mol:Wist) weighing 170-240 g are used. Test substance is injected s.c. before 5-MeO-DMT 5 mg/kg, s.c. Four rats are used for each dose. A control group pretreated with saline is included each test day. 10, 15 and 20 min later the rats are observed for presence of serotonin (5-HT) syndrome. The following symptoms are recorded: 1) forepaw treading ("piano playing"), 2) head weaving and 3) hindleg abduction. Furthermore, flat motility is scored. Each part of the syndrome is scored as follows: marked effect (score 2), weak syndrome (score 1) and no effect (score 0). The scores of the three observation periods are added. Thus the maximum obtainable score for four rats is 24. The effect of the test substance is expressed as percent inhibition relative to the control group.
The percent inhibition of the piano playing syndrome is used as the response and ED50 value are calculated by log-probit analysis.

[4] = molecular target: T1, 5-HT1A receptor; test: Antagonism of the discriminative stimulus properties induced by 8-OH-DPAT in rats (8-OH-DPAT cue); assay type: in vivo, rat (male Wistar); set-up: from tissue; host or cells: living male Wistar rat (in vivo, endogenous receptor); conditions: sc, before 8-OH-DPAT 0.4 mg/kg i.p.
Method: Antagonism of the Discriminative Stimulus Properties Induced by 8-OH-DPAT in Rats.
This test is used to determine the 5-HT1A receptor antagonistic effect of a test compound in vivo. A related method is described by Tricklebank, M. D., et al, Eur. J. Pharmacol, 1987, 133, 47-56; Amt, J. Pharmacology & Toxicology, 1989, 64, 165.
Male Wistar rats are trained to discriminate between 8-OH-DPAT (0.4 mg/kg, i.p., 15 min pretreatment) and physiological saline in operant chambers equipped with two response levers. Between the levers a dipper is placed, where water rewards (0.1 ml) are presented. The rats are water deprived for at least 24 h and work in a fixed ratio (FR) schedule (final FR=32).
Following 8-OH-DPAT administration, responding is reinforced only on a designated (drug) lever, whereas responding on the opposite lever has no consequences. Following saline administration, responding is reinforced on the lever opposite to the drug lever. Drug and saline trials alternate randomly between days. The level of discrimination accuracy is expressed as the per cent drug responses and is calculated as the number of correct responses ×100 divided by the sum of the correct and incorrect responses before the first reward. The time to the first reward is also recorded as a measure of reaction time. When stable accuracy (mean correct responding=90%; individual rats at least 75% correct responding) is obtained test sessions are included between training days. Test compound is injected s.c. or p.o. at appropriate time before 8-OH-DPAT and the test begins 15 min after 8-OH-DPAT injection. The test trial is terminated when a total of 32 responses are made on either lever or when 20 min have elapsed. No reward is given and the rats have free access to water for 20-30 min after the test. The effects are expressed as per cent inhibition of drug responding. Only results from rats making at least 10 responses on one lever are included in data analysis. Furthermore, only test sessions in which at least half of the rats respond are included.
The per cent inhibition of drug response obtained for each dose of test compound is used to calculate ED50 values by log-probit analysis.

[5] = 3H-8-OH-DPAT 1 nM, membranes from rat brain minus cerebellum, read-out: IC50, 3H 8-OH-DPAT binding

Structure (SMILES) | pIC50 [1, 5] | ED50 [2] | ED50 [3] | other results
O=S(=O)(CCCN1CCN(c2cccc3c2OCCO3)CC1)c1ccccc1 [Compound 1b, 1-(1,4-Benzodioxan-5-yl)-4-(3-phenylsulfonyl-1-propyl)piperazine] | 8.11 | 0.099 µmol/kg | 9.5 µmol/kg | –
O=C1N(CCN2CCN(c3cccc4c3OCCO4)CC2)CCN1C1CCCCC1 [Compound 2d, 1-[2-[4-(1,4-Benzodioxan-5-yl)-1-piperazinyl]ethyl]-3-cyclohexyl-2-imidazolidinone] | – | – | 10 µmol/kg | ED50 [4]: 6.3 µmol/kg; agonist activity/efficacy in words, 8-OH-DPAT cue ([2]; 8-OH-DPAT cue model, s.c.): partial agonist; response, 8-OH-DPAT cue agonism ([2]; at 0.08-19 μmol/kg, s.c. (note b)): 30-50%
O=C1N(CCN2CCN(c3cccc4c3OCC4)CC2)CCN1C1CCCC1 [Compound 2f, 1-Cyclopentyl-3-[2-[4-(2,3-dihydrobenzofuran-7-yl)-1-piperazinyl]ethyl]-2-imidazolidinone] | 7.27 | 40 µmol/kg | 28 µmol/kg | –
O=C1N(CCN2CCN(c3cccc4ccoc34)CC2)CCN1c1ccccc1 [Compound 2m, 1-[2-[4-Benzofuran-7-yl-1-piperazinyl]ethyl]-3-phenyl-2-imidazolidinone] | 7.92 | 2.3 µmol/kg | – | –
O=C1N(CCN2CCN(c3cccc4[nH]ccc34)CC2)CCN1C1CCCC1 [Compound 2y, 1-Cyclopentyl-3-[2-[4-(4-indolyl)-1-piperazinyl]ethyl]-2-imidazolidinone] | 7.55 | – | 2.7 µmol/kg | ED50 [4]: 1.9 µmol/kg
O=c1n(CCN2CCN(c3cccc4c3OCCO4)CC2)ccn1-c1ccc(F)cc1 [Compound 5a, 1-[3-[4-(1,4-Benzodioxan-5-yl)-1-piperazinyl]-1-ethyl]-1,3-dihydro-3-(4-fluorophenyl)-2-imidazolone] | 7.96 | 1.8 µmol/kg | 12 µmol/kg | –
CC1(C)Cc2cccc(C3=CCN(CCCCN4CCN(C5CCCCC5)C4=O)CC3)c2O1 [Compound 10a, 1-Cyclohexyl-3-[4-[4-(2,3-dihydro-2,2-dimethylbenzofuran-7-yl)-1,2,3,6-tetrahydropyrid-1-yl]-1-butyl]-2-imidazolidinone] | – | – | – | pIC50 [1]: 8.92
O=c1n(CCN2CCN(c3cccc4c3OCCO4)CC2)c2ccccc2n1-c1ccc(F)cc1 [Compound 12a, 1-[2-[4-(1,4-Benzodioxan-5-yl)-1-piperazinyl]ethyl]-3-(4-fluorophenyl)-2(3H)-benzimidazolone] | 7.44 | – | – | –
O=c1n(CCCCN2CCN(c3cccc4c3OCCO4)CC2)c2ccccc2n1-c1ccc(F)cc1 [Compound 13a, 1-[4-[4-(1,4-Benzodioxan-5-yl)-1-piperazinyl]-1-butyl]-3-(4-fluorophenyl)-2(3H)-benzimidazolone] | 7.66 | – | – | –
O=C1N(CCN2CCN(c3cccc4cc(-c5ccccc5)oc34)CC2)CCN1C1CCCC1 [Compound 14a, 1-Cyclopentyl-3-[2-[4-(2-phenylbenzofuran-7-yl)-1-piperazinyl]ethyl]-2-imidazolidinone] | 8.01 | – | – | –
CC1(C)COc2c(N3CCN(CCN4CCN(C5CCCC5)C4=O)CC3)cccc21 [Compound 14b] | 7.42 | – | – | –
CC1(C)Cc2c(cccc2N2CCN(CCCN3CCN(C4CCCCC4)C3=O)CC2)O1 [Compound 14d] | 7.66 | – | – | –

The next lines start with results.

pIC50 [1, 5] | ED50 [2] | ED50 [3] | Structure (SMILES) | other results
8.59 | 0.069 µmol/kg | 12 µmol/kg | O=S(=O)(CCCN1CCN(c2cccc3c2OCC3)CC1)C1CCCCC1 [Compound 1c, 1-(3-Cyclohexylsulfonyl-1-propyl)-4-(2,3-dihydrobenzofuran-7-yl)piperazine] | –
8.96 | 0.052 µmol/kg | 0.47 µmol/kg | O=S(=O)(CCCN1CCN(c2cccc3c2OCCO3)CC1)C12CC3CC(CC(C3)C1)C2 [Compound 1f, 1-[3-(1-Adamantyl)sulfonyl-1-propyl]-4-(1,4-benzodioxan-5-yl)piperazine] | –
9.04 | 0.036 µmol/kg | 0.78 µmol/kg | CC1(C)Cc2cccc(N3CCN(CCCCN4CCN(C5CCCCC5)C4=O)CC3)c2O1 [Compound 2bb, 1-Cyclohexyl-3-[4-[4-(2,3-dihydro-2,2-dimethylbenzofuran-7-yl)-1-piperazinyl]-1-butyl]-2-imidazolidinone] | –
8.49 | 0.13 µmol/kg | – | CC1(C)Cc2cccc(N3CCN(CCN4CCN(c5ccccc5)C4=O)CC3)c2O1 [Compound 2n, 1-[2-[4-(2,3-Dihydro-2,2-dimethylbenzofuran-7-yl)-1-piperazinyl]ethyl]-3-phenyl-2-imidazolidinone] | –
8.43 | 1.1 µmol/kg | 4.2 µmol/kg | CC1(C)Cc2cccc(N3CCN(CCN4CCN(C5CCCC5)C4=O)CC3)c2O1 [Compound 2p, 1-Cyclopentyl-3-[2-[4-(2,3-dihydro-2,2-dimethylbenzofuran-7-yl)-1-piperazinyl]ethyl]-2-imidazolidinone] | –
8.74 | 0.02 µmol/kg | 5.2 µmol/kg | [O-][S+](CCCN1CCN(c2cccc3c2OCCO3)CC1)C1CCCCC1 (stereo not shown) [Compound 3a, 1-(1,4-Benzodioxan-5-yl)-4-(3-cyclohexylthio-1-propyl)piperazine S-oxide] | –
8.46 | – | – | CC1(C)Cc2cccc(C3CCN(CCCCN4CCN(C5CCCCC5)C4=O)CC3)c2O1 [Compound 11a, 1-Cyclohexyl-3-[4-[4-(2,3-dihydro-2,2-dimethylbenzofuran-7-yl)-1-piperidinyl]-1-butyl]-2-imidazolidinone] | –
8.12 | – | – | CC1(C)COc2c(N3CCN(CCCCCCN4CCN(C5CCCC5)C4=O)CC3)cccc21 [Compound 14c] | –
